Assay results as given in patent US9340590B2 (priority 2011, dated 2016).
Read-outs that look alike come from different tables or passages of the source. Positions of bridges follow the written chain, without caps; N, C: chain ends. Non-standard residues stand in square brackets, D forms with d. Residues, ends and D or L forms follow the SMILES beside them. No end group written: not given here. 1Nal = N[C@@H](Cc1cccc2ccccc12)C(=O)O; Abu = CC[C@H](N)C(=O)O

Molecular target: hNav1.7 (Homo sapiens, UniProt Q15858)
Sequence (Q15858 whole entry, looked up): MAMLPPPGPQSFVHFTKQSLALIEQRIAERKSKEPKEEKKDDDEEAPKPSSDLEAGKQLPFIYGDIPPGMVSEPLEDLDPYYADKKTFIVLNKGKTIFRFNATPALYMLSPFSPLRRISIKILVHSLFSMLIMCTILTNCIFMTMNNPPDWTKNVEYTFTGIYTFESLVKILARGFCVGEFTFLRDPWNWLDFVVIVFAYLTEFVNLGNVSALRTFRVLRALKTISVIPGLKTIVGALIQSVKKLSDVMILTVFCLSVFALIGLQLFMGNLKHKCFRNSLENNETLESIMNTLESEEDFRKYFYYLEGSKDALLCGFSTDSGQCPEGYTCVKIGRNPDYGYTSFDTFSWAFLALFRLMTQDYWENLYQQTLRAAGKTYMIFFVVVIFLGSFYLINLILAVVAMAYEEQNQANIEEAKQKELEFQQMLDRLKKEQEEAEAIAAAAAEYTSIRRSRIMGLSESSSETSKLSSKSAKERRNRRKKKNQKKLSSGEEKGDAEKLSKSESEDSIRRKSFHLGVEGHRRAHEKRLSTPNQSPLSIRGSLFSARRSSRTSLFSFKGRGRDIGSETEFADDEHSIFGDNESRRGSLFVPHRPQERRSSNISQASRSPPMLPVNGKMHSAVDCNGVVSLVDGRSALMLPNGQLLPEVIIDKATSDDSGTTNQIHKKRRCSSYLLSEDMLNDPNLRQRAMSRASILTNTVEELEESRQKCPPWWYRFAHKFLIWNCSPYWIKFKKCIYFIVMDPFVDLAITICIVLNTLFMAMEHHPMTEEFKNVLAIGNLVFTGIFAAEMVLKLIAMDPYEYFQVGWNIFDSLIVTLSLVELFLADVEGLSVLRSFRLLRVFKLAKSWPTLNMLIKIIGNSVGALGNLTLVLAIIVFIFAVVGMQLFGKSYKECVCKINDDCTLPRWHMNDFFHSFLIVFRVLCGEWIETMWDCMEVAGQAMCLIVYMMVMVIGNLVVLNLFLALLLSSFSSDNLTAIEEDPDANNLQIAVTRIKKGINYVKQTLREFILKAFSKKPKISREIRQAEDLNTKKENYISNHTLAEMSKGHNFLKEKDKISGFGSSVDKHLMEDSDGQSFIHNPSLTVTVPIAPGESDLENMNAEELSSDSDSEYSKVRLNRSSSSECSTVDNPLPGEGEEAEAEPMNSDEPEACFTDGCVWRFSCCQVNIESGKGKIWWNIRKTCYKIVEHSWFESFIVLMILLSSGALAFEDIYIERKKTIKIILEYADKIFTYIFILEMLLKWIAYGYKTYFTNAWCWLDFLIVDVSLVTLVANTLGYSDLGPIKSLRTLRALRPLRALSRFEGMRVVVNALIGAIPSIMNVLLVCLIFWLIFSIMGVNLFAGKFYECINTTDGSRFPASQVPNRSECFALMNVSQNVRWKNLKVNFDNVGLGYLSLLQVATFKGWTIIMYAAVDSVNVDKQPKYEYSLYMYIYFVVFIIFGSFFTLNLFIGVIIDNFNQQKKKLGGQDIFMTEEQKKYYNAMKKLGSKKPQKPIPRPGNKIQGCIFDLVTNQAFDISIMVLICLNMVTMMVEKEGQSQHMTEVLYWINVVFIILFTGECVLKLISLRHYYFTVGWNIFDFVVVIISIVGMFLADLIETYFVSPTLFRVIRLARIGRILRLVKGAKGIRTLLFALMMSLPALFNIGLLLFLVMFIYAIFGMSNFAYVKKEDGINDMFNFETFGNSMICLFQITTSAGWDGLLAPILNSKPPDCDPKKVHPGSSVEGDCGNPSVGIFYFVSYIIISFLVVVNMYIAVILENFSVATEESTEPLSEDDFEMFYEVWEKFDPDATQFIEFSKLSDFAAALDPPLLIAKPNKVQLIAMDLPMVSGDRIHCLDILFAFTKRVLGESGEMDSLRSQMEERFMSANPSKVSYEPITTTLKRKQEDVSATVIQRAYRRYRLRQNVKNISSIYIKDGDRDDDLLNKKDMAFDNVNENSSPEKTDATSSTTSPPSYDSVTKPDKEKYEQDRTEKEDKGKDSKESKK
Assay: cell-based
Assay type: cell-based
Conditions: for IC50: read-out: IWQ Use Nav1.7
[1] = IonWorks Quattro, clamped to −110 mV, depolarized to −10 mV, 5 min after compound, n=2

For CC[C@H](C)[C@@H]1NC(=O)[C@@H]2CSSC[C@@H]3NC(=O)[C@H](C(C)C)NC(=O)[C@H](CC(C)C)NC(=O)[C@H](CC(N)=O)NC(=O)[C@@H]4CCCN4C(=O)[C@H](CCCNC(=N)N)NC(=O)[C@H](CSSC[C@H](NC(=O)[C@@H](N)CC(=O)O)C(=O)N[C@@H](CC(C)C)C(=O)NCC(=O)N[C@@H](Cc4ccccc4)C(=O)N[C@@H](CCSC)C(=O)N[C@@H](CCCNC(=N)N)C(=O)N[C@@H](CCCCN)C(=O)N2)NC(=O)[C@H](CSSC[C@@H](C(=O)N[C@@H](CCCCN)C(=O)N[C@@H](Cc2cccc4ccccc24)C(=O)N[C@H](C(=O)N[C@@H](Cc2ccccc2)C(N)=O)C(C)C)NC(=O)[C@H](Cc2c[nH]c4ccccc24)NC(=O)[C@H](CCCCN)NC(=O)[C@H](Cc2c[nH]cn2)NC(=O)[C@H]([C@@H](C)O)NC(=O)[C@H](CCCNC(=N)N)NC(=O)[C@H](CO)NC3=O)NC(=O)[C@H](CCCCN)NC(=O)[C@H](CC(=O)O)NC(=O)[C@H](CC(N)=O)NC(=O)[C@H](CC(=O)O)NC(=O)[C@@H]2CCCN2C1=O [compound 167] (H-DCLGFMRKCIPDNDKCCRPNLVCSRTHKWCK[1Nal]VF-NH2; disulfide 2-17, 9-23, 16-30), the IC50 (Table 25, IonWorks Quattro, use, […]) was 4 nM.

With “[Ser-Ser19]GpTx-1 (DCLGFMRKCIPDNDKCCRSSNLVCSRTHKWCKYVF-NH2; ends and bridges not checked)” the “activity against NaV1.7 relative to GpTx-1, in words” value was “without substantial impact on the activity”.

CC[C@H](C)[C@@H]1NC(=O)[C@@H]2CSSC[C@@H]3NC(=O)[C@H](C(C)C)NC(=O)[C@H](CC(C)C)NC(=O)[C@H](CC(N)=O)NC(=O)[C@@H]4CCCN4C(=O)[C@H](CCCNC(=N)N)NC(=O)[C@H](CSSC[C@H](NC(=O)[C@@H](N)CC(=O)O)C(=O)N[C@@H](CC(C)C)C(=O)NCC(=O)N[C@@H](Cc4ccccc4)C(=O)N[C@@H](CCSC)C(=O)N[C@@H](CCCNC(=N)N)C(=O)N[C@@H](CCCCN)C(=O)N2)NC(=O)[C@H](CSSC[C@@H](C(=O)N[C@@H](CCCCN)C(=O)N[C@@H](Cc2ccc(O)cc2)C(=O)N[C@@H](CCCNC(=N)N)C(=O)N[C@@H](Cc2ccccc2)C(N)=O)NC(=O)[C@H](Cc2c[nH]c4ccccc24)NC(=O)[C@H](CCCCN)NC(=O)[C@H](Cc2c[nH]cn2)NC(=O)[C@H]([C@@H](C)O)NC(=O)[C@H](CCCNC(=N)N)NC(=O)[C@H](CO)NC3=O)NC(=O)[C@H](CCCCN)NC(=O)[C@H](CC(=O)O)NC(=O)[C@H](CC(N)=O)NC(=O)[C@H](CC(=O)O)NC(=O)[C@@H]2CCCN2C1=O [compound 74] (H-DCLGFMRKCIPDNDKCCRPNLVCSRTHKWCKYRF-NH2; disulfide 2-17, 9-23, 16-30) gave an IC50 (Table 26, IonWorks Quattro, use, […]) of 80 nM.

Work on CC[C@H](C)[C@@H]1NC(=O)[C@@H]2CSSC[C@@H]3NC(=O)[C@H](C(C)C)NC(=O)[C@H](CC(C)C)NC(=O)[C@H](CC(N)=O)NC(=O)[C@@H]4CCCN4C(=O)[C@H](CCCNC(=N)N)NC(=O)[C@H](CSSC[C@H](NC(=O)[C@H](C)N)C(=O)N[C@@H](CC(C)C)C(=O)NCC(=O)N[C@@H](Cc4ccccc4)C(=O)N[C@@H](CCSC)C(=O)N[C@@H](CCCNC(=N)N)C(=O)N[C@@H](CCCCN)C(=O)N2)NC(=O)[C@H](CSSC[C@@H](C(=O)N[C@@H](CCCCN)C(=O)N[C@@H](Cc2ccc(O)cc2)C(=O)N[C@H](C(=O)N[C@@H](Cc2ccccc2)C(N)=O)C(C)C)NC(=O)[C@H](Cc2c[nH]c4ccccc24)NC(=O)[C@H](CCCCN)NC(=O)[C@H](Cc2c[nH]cn2)NC(=O)[C@H]([C@@H](C)O)NC(=O)[C@H](CCCNC(=N)N)NC(=O)[C@H](CO)NC3=O)NC(=O)[C@H](CCCCN)NC(=O)[C@H](CC(=O)O)NC(=O)[C@H](CC(N)=O)NC(=O)[C@H](CC(=O)O)NC(=O)[C@@H]2CCCN2C1=O [SEQ ID NO: 20] (H-ACLGFMRKCIPDNDKCCRPNLVCSRTHKWCKYVF-NH2; disulfide 2-17, 9-23, 16-30) yielded an IC50 [1] of 100 nM.

For CC[C@H](C)[C@@H]1NC(=O)[C@@H]2CSSC[C@@H]3NC(=O)[C@H](C(C)C)NC(=O)[C@H](CC(C)C)NC(=O)[C@H](CC(N)=O)NC(=O)[C@@H]4CCCN4C(=O)[C@H](CCC(=O)O)NC(=O)[C@H](CSSC[C@H](NC(=O)[C@@H](N)CC(=O)O)C(=O)N[C@@H](CC(C)C)C(=O)NCC(=O)N[C@@H](Cc4ccccc4)C(=O)N[C@@H](CCSC)C(=O)N[C@@H](CCCNC(=N)N)C(=O)N[C@@H](CCCCN)C(=O)N2)NC(=O)[C@H](CSSC[C@@H](C(=O)N[C@@H](CCCCN)C(=O)N[C@@H](Cc2ccc(O)cc2)C(=O)N[C@H](C(=O)N[C@@H](Cc2ccccc2)C(N)=O)C(C)C)NC(=O)[C@H](Cc2c[nH]c4ccccc24)NC(=O)[C@H](CCCCN)NC(=O)[C@H](Cc2c[nH]cn2)NC(=O)[C@H]([C@@H](C)O)NC(=O)[C@H](CCCNC(=N)N)NC(=O)[C@H](CO)NC3=O)NC(=O)[C@H](CCCCN)NC(=O)[C@H](CC(=O)O)NC(=O)[C@H](CC(N)=O)NC(=O)[C@H](CC(=O)O)NC(=O)[C@@H]2CCCN2C1=O [compound 148] (H-DCLGFMRKCIPDNDKCCEPNLVCSRTHKWCKYVF-NH2; disulfide 2-17, 9-23, 16-30), the IC50 was 220 nM.

In the case of CC[C@H](C)[C@@H]1NC(=O)[C@@H]2CSSC[C@@H]3NC(=O)[C@H](C(C)C)NC(=O)[C@H](CC(C)C)NC(=O)[C@H](CC(N)=O)NC(=O)[C@@H]4CCCN4C(=O)[C@H](CCCNC(=N)N)NC(=O)[C@H](CSSC[C@H](NC(=O)[C@@H](N)CC(=O)O)C(=O)N[C@@H](CC(C)C)C(=O)NCC(=O)N[C@@H](Cc4ccccc4)C(=O)N[C@@H](CCSC)C(=O)N[C@@H](CCCNC(=N)N)C(=O)N[C@@H](CCCCN)C(=O)N2)NC(=O)[C@H](CSSC[C@@H](C(=O)N[C@@H](CCCCN)C(=O)N[C@@H](Cc2ccc(O)cc2)C(=O)N[C@H](C(=O)N[C@@H](Cc2ccccc2)C(N)=O)C(C)C)NC(=O)[C@H](Cc2c[nH]c4ccccc24)NC(=O)[C@H](CCCCN)NC(=O)[C@H](Cc2c[nH]cn2)NC(=O)[C@H]([C@@H](C)O)NC(=O)[C@H](CCCNC(=N)N)NC(=O)[C@H](CO)NC3=O)NC(=O)[C@H](CCCCN)NC(=O)[C@H](CC(=O)O)NC(=O)[C@H](CC(N)=O)NC(=O)[C@H](C)NC(=O)[C@@H]2CCCN2C1=O [compound 4] (H-DCLGFMRKCIPANDKCCRPNLVCSRTHKWCKYVF-NH2; disulfide 2-17, 9-23, 16-30), the IC50 (IonWorks Quattro, Use) is reported as 120 nM.

CC[C@H](C)[C@@H]1NC(=O)[C@@H]2CSSC[C@@H]3NC(=O)[C@H](C(C)C)NC(=O)[C@H](CC(C)C)NC(=O)[C@H](CC(N)=O)NC(=O)[C@@H]4CCCN4C(=O)[C@H](CCCNC(=N)N)NC(=O)[C@H](CSSC[C@H](NC(=O)[C@@H](N)CC(=O)O)C(=O)N[C@@H](CCCNC(=N)N)C(=O)NCC(=O)N[C@@H](Cc4ccccc4)C(=O)N[C@@H](CCSC)C(=O)N[C@@H](CCCNC(=N)N)C(=O)N[C@@H](CCCCN)C(=O)N2)NC(=O)[C@H](CSSC[C@@H](C(=O)N[C@@H](CCCCN)C(=O)N[C@@H](Cc2ccc(O)cc2)C(=O)N[C@H](C(=O)N[C@@H](Cc2ccccc2)C(N)=O)C(C)C)NC(=O)[C@H](Cc2c[nH]c4ccccc24)NC(=O)[C@H](CCCCN)NC(=O)[C@H](Cc2c[nH]cn2)NC(=O)[C@H]([C@@H](C)O)NC(=O)[C@H](CCCNC(=N)N)NC(=O)[C@H](CO)NC3=O)NC(=O)[C@H](CCCCN)NC(=O)[C@H](CC(=O)O)NC(=O)[C@H](CC(N)=O)NC(=O)[C@H](CC(=O)O)NC(=O)[C@@H]2CCCN2C1=O [SEQ ID NO: 155] (H-DCRGFMRKCIPDNDKCCRPNLVCSRTHKWCKYVF-NH2; disulfide 2-17, 9-23, 16-30) gave an IC50 of 30 nM.

For CSCC[C@@H]1NC(=O)[C@H](Cc2ccccc2)NC(=O)CNC(=O)[C@H](CC(C)C)NC(=O)[C@@H](NC(=O)[C@@H](N)CC(=O)O)CSSC[C@@H]2NC(=O)[C@@H]3CSSC[C@@H](C(=O)N[C@@H](CCCCN)C(=O)N[C@@H](Cc4ccc(O)cc4)C(=O)N[C@H](C(=O)N[C@@H](Cc4ccccc4)C(N)=O)C(C)C)NC(=O)[C@H](Cc4c[nH]c5ccccc45)NC(=O)[C@H](CCCCN)NC(=O)[C@H](Cc4c[nH]cn4)NC(=O)[C@H]([C@@H](C)O)NC(=O)[C@H](CCCNC(=N)N)NC(=O)[C@H](CO)NC(=O)[C@H](CSSC[C@H](NC(=O)[C@H](CCCCN)NC(=O)[C@H](CCCNC(=N)N)NC1=O)C(=O)N[C@@H](C)C(=O)N1CCC[C@H]1C(=O)N[C@@H](CC(=O)O)C(=O)N[C@@H](CC(N)=O)C(=O)N[C@@H](CC(=O)O)C(=O)N[C@@H](CCCCN)C(=O)N3)NC(=O)[C@H](C(C)C)NC(=O)[C@H](CC(C)C)NC(=O)[C@H](CC(N)=O)NC(=O)[C@@H]1CCCN1C(=O)[C@H](CCCNC(=N)N)NC2=O [compound 45] (H-DCLGFMRKCAPDNDKCCRPNLVCSRTHKWCKYVF-NH2; disulfide 2-17, 9-23, 16-30), the IC50 (IonWorks Quattro, Use) was 210 nM.

With CC[C@H](C)[C@@H]1NC(=O)[C@@H]2CSSC[C@@H]3NC(=O)[C@H](C(C)C)NC(=O)[C@H](CC(C)C)NC(=O)[C@H](CC(N)=O)NC(=O)[C@@H]4CCCN4C(=O)[C@H](CCCNC(=N)N)NC(=O)[C@H](CSSC[C@H](NC(=O)[C@@H](N)CC(=O)O)C(=O)N[C@@H](CC(C)C)C(=O)NCC(=O)N[C@@H](Cc4ccccc4)C(=O)N[C@@H](CCC(=O)O)C(=O)N[C@@H](CCCNC(=N)N)C(=O)N[C@@H](CCCCN)C(=O)N2)NC(=O)[C@H](CSSC[C@@H](C(=O)N[C@@H](CCCCN)C(=O)N[C@@H](Cc2ccc(O)cc2)C(=O)N[C@H](C(=O)N[C@@H](Cc2ccccc2)C(N)=O)C(C)C)NC(=O)[C@H](Cc2c[nH]c4ccccc24)NC(=O)[C@H](CCCCN)NC(=O)[C@H](Cc2c[nH]cn2)NC(=O)[C@H]([C@@H](C)O)NC(=O)[C@H](CCCNC(=N)N)NC(=O)[C@H](CO)NC3=O)NC(=O)[C@H](CCCCN)NC(=O)[C@H](CC(=O)O)NC(=O)[C@H](CC(N)=O)NC(=O)[C@H](CC(=O)O)NC(=O)[C@@H]2CCCN2C1=O [SEQ ID NO: 144] (H-DCLGFERKCIPDNDKCCRPNLVCSRTHKWCKYVF-NH2; disulfide 2-17, 9-23, 16-30) the IC50 [1] was 3510 nM.

With “[2-Abu-2,17]GpTx-1 (D[Abu]LGFMRKCIPDNDKC[Abu]RPNLVCSRTHKWCKYVF-NH2; ends and bridges not checked)” the “activity against NaV1.7 relative to GpTx-1, in words” value was “retains significant activity”.
